Test results as given in patent US9295673B2, “Combination of mTOR inhibitors and P13-kinase inhibitors, and uses thereof” (Intellikine LLC, priority 2011, dated 2016).
pIC50: −log10 of the molar value. Like-named read-outs stand apart in the source and are kept apart here. Values belong to the compound of their own block, whether it stands above or below them.

Key:
mTOR = target: T1, mTOR (Homo sapiens, UniProt P42345); assay: mTOR kinase inhibition assay (radiometric or LanthaScreen TR-FRET); type: biochemical; details: read-out: mTORC IC50
T1 construct: purchased Invitrogen
T1 sequence (P42345 1360-2549 limits assumed): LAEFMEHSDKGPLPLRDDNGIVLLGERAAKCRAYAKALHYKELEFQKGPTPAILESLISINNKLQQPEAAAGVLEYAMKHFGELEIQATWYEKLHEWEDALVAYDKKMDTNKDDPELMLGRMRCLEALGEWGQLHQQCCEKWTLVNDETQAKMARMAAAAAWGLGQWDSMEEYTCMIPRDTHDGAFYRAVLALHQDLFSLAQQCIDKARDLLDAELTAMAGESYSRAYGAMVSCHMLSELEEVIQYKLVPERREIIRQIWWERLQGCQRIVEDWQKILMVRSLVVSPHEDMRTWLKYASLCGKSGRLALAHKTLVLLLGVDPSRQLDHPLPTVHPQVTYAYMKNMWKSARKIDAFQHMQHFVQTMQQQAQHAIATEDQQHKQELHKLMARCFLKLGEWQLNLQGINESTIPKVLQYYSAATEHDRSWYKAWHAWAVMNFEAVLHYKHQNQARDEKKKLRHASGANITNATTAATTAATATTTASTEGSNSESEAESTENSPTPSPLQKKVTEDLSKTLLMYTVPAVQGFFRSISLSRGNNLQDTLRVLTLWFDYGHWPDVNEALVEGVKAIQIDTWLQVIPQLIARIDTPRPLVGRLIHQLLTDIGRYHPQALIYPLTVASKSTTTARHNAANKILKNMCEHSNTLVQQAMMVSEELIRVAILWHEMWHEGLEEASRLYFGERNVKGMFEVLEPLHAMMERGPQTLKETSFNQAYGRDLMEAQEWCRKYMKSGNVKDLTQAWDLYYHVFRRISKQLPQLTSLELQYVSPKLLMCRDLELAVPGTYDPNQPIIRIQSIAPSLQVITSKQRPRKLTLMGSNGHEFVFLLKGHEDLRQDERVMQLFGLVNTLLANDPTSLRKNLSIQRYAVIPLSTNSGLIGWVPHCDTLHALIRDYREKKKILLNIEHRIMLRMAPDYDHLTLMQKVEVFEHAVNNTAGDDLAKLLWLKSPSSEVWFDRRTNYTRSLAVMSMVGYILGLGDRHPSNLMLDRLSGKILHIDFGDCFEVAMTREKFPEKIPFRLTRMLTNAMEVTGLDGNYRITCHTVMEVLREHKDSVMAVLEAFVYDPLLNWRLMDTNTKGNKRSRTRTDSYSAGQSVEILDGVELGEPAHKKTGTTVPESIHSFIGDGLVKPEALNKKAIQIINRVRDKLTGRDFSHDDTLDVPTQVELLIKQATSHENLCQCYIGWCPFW

PI3K α = PI3K α (Homo sapiens, UniProt P42336); assay: PI 3-Kinase (human) HTRF assay, PI3K α
PI3K α, sequence (P42336 whole entry): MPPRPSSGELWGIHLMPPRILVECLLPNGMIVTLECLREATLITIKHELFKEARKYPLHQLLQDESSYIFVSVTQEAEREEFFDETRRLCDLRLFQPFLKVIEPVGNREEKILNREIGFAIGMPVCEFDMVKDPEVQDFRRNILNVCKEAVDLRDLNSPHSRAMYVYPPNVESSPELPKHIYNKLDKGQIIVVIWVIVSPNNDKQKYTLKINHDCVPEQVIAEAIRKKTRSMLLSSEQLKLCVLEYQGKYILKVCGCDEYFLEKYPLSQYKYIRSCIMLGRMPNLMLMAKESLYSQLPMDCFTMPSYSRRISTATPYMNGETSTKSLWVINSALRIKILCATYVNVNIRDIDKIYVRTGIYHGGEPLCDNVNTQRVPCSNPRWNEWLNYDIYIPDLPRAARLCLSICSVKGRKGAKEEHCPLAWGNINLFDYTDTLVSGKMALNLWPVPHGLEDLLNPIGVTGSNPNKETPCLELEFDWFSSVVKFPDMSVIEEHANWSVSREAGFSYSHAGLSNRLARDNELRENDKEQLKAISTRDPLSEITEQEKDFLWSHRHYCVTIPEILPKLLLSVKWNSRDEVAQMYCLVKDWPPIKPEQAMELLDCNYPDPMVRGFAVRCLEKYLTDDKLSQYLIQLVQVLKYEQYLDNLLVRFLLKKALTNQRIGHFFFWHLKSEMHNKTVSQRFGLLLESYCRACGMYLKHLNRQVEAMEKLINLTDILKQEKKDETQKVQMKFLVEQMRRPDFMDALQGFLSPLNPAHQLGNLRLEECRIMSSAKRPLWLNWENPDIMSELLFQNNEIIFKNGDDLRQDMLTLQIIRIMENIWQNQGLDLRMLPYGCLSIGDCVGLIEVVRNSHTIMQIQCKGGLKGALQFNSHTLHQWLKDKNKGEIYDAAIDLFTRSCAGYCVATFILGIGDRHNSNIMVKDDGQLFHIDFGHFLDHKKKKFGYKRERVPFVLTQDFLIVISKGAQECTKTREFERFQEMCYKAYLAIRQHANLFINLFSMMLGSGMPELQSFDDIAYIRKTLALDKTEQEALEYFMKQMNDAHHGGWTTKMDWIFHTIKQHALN
PI3K α, sequence (P27986 whole entry partner): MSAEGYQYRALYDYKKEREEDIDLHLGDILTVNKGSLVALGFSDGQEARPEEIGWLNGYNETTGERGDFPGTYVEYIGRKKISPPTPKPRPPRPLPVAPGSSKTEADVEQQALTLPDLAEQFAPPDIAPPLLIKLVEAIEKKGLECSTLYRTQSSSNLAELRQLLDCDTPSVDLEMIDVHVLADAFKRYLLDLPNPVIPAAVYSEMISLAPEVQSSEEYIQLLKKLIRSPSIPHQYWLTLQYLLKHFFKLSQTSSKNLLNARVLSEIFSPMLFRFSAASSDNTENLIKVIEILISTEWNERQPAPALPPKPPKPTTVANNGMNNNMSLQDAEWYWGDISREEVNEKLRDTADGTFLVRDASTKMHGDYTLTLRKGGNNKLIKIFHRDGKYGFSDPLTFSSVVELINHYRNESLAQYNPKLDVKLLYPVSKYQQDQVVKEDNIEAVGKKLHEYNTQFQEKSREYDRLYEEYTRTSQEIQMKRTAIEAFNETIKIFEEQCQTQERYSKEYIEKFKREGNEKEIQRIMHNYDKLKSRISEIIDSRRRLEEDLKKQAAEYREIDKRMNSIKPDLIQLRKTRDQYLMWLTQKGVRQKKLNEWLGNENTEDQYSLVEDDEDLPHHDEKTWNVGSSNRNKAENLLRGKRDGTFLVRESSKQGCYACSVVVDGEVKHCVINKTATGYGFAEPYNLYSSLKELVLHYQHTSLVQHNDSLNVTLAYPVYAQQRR

PI3K δ = PI3K δ (Homo sapiens, UniProt O00329); assay: PI 3-Kinase (human) HTRF assay, PI3K δ
PI3K β = PI3K β (Homo sapiens, UniProt P42338); assay: PI 3-Kinase (human) HTRF assay, PI3K β
PI3K β, sequence (P42338 whole entry): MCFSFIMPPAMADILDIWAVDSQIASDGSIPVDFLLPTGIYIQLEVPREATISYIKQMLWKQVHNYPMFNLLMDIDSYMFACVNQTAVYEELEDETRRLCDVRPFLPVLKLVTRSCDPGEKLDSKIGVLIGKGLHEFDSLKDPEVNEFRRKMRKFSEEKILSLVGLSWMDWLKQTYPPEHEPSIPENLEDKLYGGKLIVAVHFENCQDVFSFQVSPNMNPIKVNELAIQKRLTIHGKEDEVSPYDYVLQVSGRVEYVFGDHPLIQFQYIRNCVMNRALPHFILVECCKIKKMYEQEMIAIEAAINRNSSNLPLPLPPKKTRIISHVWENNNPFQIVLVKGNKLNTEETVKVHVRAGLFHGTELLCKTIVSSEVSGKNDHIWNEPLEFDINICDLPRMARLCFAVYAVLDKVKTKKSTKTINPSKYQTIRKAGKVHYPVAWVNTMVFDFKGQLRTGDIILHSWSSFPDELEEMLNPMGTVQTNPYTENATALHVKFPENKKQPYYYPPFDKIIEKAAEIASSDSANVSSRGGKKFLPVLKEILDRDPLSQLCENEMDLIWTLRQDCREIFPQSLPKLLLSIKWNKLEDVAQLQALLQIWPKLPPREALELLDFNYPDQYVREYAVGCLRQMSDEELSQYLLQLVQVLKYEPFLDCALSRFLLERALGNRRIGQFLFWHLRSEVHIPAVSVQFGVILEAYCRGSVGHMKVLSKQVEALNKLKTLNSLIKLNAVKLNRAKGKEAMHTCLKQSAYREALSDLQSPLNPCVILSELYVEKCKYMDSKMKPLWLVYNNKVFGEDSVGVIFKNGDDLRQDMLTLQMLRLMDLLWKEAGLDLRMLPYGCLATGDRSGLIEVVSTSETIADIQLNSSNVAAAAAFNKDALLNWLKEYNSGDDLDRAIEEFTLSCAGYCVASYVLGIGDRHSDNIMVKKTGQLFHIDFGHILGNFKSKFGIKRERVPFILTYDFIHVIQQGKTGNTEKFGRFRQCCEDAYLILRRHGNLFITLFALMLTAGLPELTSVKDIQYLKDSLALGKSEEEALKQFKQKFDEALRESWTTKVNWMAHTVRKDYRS
PI3K β, sequence (P27986 whole entry partner): as the sequence (P27986 whole entry partner) above

PI3K γ = PI3K γ (Homo sapiens, UniProt P48736); assay: PI 3-Kinase (human) HTRF assay, PI3K γ
[1] = read-out: PI3K γ IC50, in vitro
[2] = read-out: PI3K α IC50, in vitro
[3] = read-out: PI3K δ IC50, in vitro
[4] = read-out: PI3K β IC50, in vitro

Structure (SMILES): Nc1ncnc2c1c(-c1cc3cc(O)ccc3[nH]1)nn2C1CCN(C(=O)C2CC2)CC1 [Compound 31]
pIC50 (mTOR; Table 2): > 7.60
pIC50 (PI3K α; read-out: PI3K α IC50): < 6.30
pIC50 (PI3K δ; read-out: PI3K δ IC50, Table 2): 6.30 to 7.00
pIC50 (PI3K β; read-out: PI3K β IC50, Table 2): < 6.30

Structure (SMILES): CC(C)[C@@H](N)C(=O)N1CCN(c2cnc3ccc(-c4ccc5oc(N)nc5c4)cc3n2)CC1 [Compound 270]
pIC50 (mTOR): > 5.00
pIC50 (PI3K α; read-out: PI3K α IC50): > 7.00
pIC50 (PI3K δ; read-out: PI3K δ IC50): > 6.00
pIC50 (PI3K β; read-out: PI3K β IC50): > 6.00

Structure (SMILES): Cc1nccn1CCn1nc(-c2cc3cc(O)ccc3[nH]2)c2c(N)ncnc21 [Compound 44]
pIC50 (mTOR; Table 2): > 7.00
pIC50 (PI3K α; read-out: PI3K α IC50, Table 2): < 6.30
pIC50 (PI3K δ; read-out: PI3K δ IC50): < 6.30
pIC50 (PI3K β; read-out: PI3K β IC50, Table 2): < 6.30

Structure (SMILES): Cc1ncc(-c2ccc3ncc(C(=O)N4C5CCC4COC5)n3c2)c2cn[nH]c12 [Compound 538]
pIC50 (mTOR; in vitro): < 5.00
pIC50 (PI3K δ; read-out: PI3K δ IC50): > 5.00

pIC50 (PI3K γ; read-out: PI3K γ IC50): > 7.00
pIC50 (PI3K α; read-out: PI3K α IC50): > 7.00
pIC50 (PI3K δ; read-out: PI3K δ IC50): > 7.00
pIC50 (PI3K β; read-out: PI3K β IC50): > 5.00
Structure (SMILES): Nc1nc2cc(-c3ccc4ncc(NC5CCC(O)CC5)nc4c3)ccc2o1 (centres unmarked) [Compound 128]

Structure (SMILES): CN1CCN(C2CCC(n3nc(-c4cc5cc(O)ccc5[nH]4)c4c(N)ncnc43)CC2)CC1 (centres unmarked) [Compound 58]
pIC50 (PI3K γ; read-out: PI3K γ IC50, Table 2): < 6.30
pIC50 (mTOR; Table 2): < 6.30
pIC50 (PI3K α; read-out: PI3K α IC50): < 6.30
pIC50 (PI3K β; read-out: PI3K β IC50, Table 2): < 6.30

Structure (SMILES): C[C@H]1CN(C2CN(c3cnc4ccc(-c5ccc6oc(N)nc6c5)nc4c3)C2)CCN1C [Compound 606]
pIC50 (mTOR; Table 4): < 5.00
pIC50 (PI3K α): > 7.00
pIC50 (PI3K δ): > 6.00

pIC50 (PI3K γ): > 6.00
pIC50 (PI3K α): > 6.00
Structure (SMILES): Nc1nc2cc(-c3ccc4ncc(C(=O)NCCOCCO)n4c3)ccc2o1 [Compound 550]

Structure (SMILES): C[C@@H]1CN(C2CN(c3cnc4ccc(-c5ccc6oc(N)nc6c5)nc4c3)C2)CCN1C [Compound 608]
pIC50 (PI3K γ; read-out: PI3K γ IC50, Table 4): > 5.00
pIC50 (mTOR; Table 4): < 5.00
pIC50 (PI3K β; read-out: PI3K β IC50, Table 4): > 5.00

Structure (SMILES): CCOC(=O)Cn1nc(-c2cc3cc(O)ccc3[nH]2)c2c(N)ncnc21 [Compound 28]
pIC50 (mTOR; Table 2): > 6.30
pIC50 (PI3K α; read-out: PI3K α IC50): < 6.30
pIC50 (PI3K δ; read-out: PI3K δ IC50): < 6.30
pIC50 (PI3K β; read-out: PI3K β IC50, Table 2): < 6.30

Structure (SMILES): Nc1nc2cc(-c3ccc4ncc(N5CC(N6C7CCC6COC7)C5)nc4n3)ccc2o1 [Compound 602]
pIC50 (PI3K γ; read-out: PI3K γ IC50): < 5.00
pIC50 (PI3K α; read-out: PI3K α IC50): > 5.00
pIC50 (PI3K δ; read-out: PI3K δ IC50): < 5.00
pIC50 (PI3K β; read-out: PI3K β IC50, Table 4): < 5.00

Structure (SMILES): CC(C)n1nc(-c2cc3cc(O)ccc3[nH]2)c2c(N)nccc21 [Compound 45]
pIC50 (mTOR; Table 2): < 6.30

Structure (SMILES): COc1cc2cc(-c3nn(C(C)C)c4ncnc(N)c34)[nH]c2cc1Cl [Compound 29]
pIC50 (mTOR; Table 2): < 6.30

Structure (SMILES): Nc1nc2cc(-c3ccc4ncc(N5CC(N6C7CCC6COC7)C5)cc4n3)ccc2o1 [Compound 618]
pIC50 (PI3K γ; read-out: PI3K γ IC50, Table 4): > 6.00
pIC50 (PI3K α; read-out: PI3K α IC50, Table 4): > 7.00
pIC50 (PI3K δ; read-out: PI3K δ IC50): > 5.00
pIC50 (PI3K β; read-out: PI3K β IC50, Table 4): < 5.00

Structure (SMILES): Nc1ncnc2c1c(-c1cc3cc(O)ccc3[nH]1)nn2C1CCOCC1 [Compound 42]
pIC50 (mTOR; Table 2): > 8.30
pIC50 (PI3K α; read-out: PI3K α IC50): < 6.30
pIC50 (PI3K δ; read-out: PI3K δ IC50): 7.00 to 7.30
pIC50 (PI3K β; read-out: PI3K β IC50, Table 2): < 6.30

pIC50 (PI3K γ; [1]): < 5.00
pIC50 (PI3K α; [2]): < 5.00
pIC50 (PI3K δ; [3]): < 5.00
pIC50 (PI3K β; [4]): < 5.00
Structure (SMILES): O=C(c1cnc2ccc(-c3cncc4c3cnn4CCO)cn12)N1CCOCC1 [Compound 539]

pIC50 (PI3K γ; [1]): > 5.00
pIC50 (PI3K α; [2]): > 5.00
Structure (SMILES): Cn1ncc2c(-c3ccc4ncc(C(=O)N5CCOCC5)n4c3)cncc21 [Compound 537]

pIC50 (PI3K γ; read-out: PI3K γ IC50): < 5.00
pIC50 (PI3K α; read-out: PI3K α IC50): < 5.00
pIC50 (PI3K δ; read-out: PI3K δ IC50): < 5.00
pIC50 (PI3K β; read-out: PI3K β IC50): < 5.00
Structure (SMILES): CC(=O)Nc1nc2ccc(-c3nc(N4CCOCC4)c4sc(CN5CCN(S(C)(=O)=O)CC5)cc4n3)cc2s1 [Compound 130]

pIC50 (PI3K γ): < 5.00
pIC50 (PI3K α): < 5.00
pIC50 (PI3K δ): < 5.00
pIC50 (PI3K β): < 5.00
Structure (SMILES): C[C@H]1CN(c2cnc3scc(-c4ccc5oc(N)nc5c4)c3n2)CCN1 [Compound 399]

Structure (SMILES): CNC(=O)CCn1nc(-c2cc3cc(O)ccc3[nH]2)c2c(N)ncnc21 [Compound 43]
pIC50 (mTOR; Table 2): < 6.30
pIC50 (PI3K α; read-out: PI3K α IC50): < 6.30
pIC50 (PI3K δ; read-out: PI3K δ IC50, Table 2): < 6.30
pIC50 (PI3K β; read-out: PI3K β IC50, Table 2): < 6.30

pIC50 (PI3K γ; read-out: PI3K γ IC50, Table 4): > 5.00
pIC50 (PI3K α; read-out: PI3K α IC50, Table 4): > 5.00
Structure (SMILES): C[C@@H]1COCCN1C1CN(c2cnc3ccc(-c4ccc5oc(N)nc5c4)nc3n2)C1 [Compound 600]

pIC50 (PI3K γ; [1]): < 5.00
pIC50 (PI3K α; [2]): < 5.00
pIC50 (PI3K δ; [3]): < 5.00
pIC50 (PI3K β; [4]): < 5.00
Structure (SMILES): CNS(=O)(=O)c1cc(-c2ccc3ncc(C(=O)N4CCOCC4)n3c2)ccc1OC [Compound 445]

pIC50 (PI3K γ): > 7.00
pIC50 (PI3K α): > 7.00
pIC50 (PI3K β): > 6.00
Structure (SMILES): Nc1nc2cc(-c3ccc4ncc(N5CCNC(=O)C5)nc4n3)ccc2o1 [Compound 580]

Structure (SMILES): CC(=O)N1CCC(n2nc(-c3cc4cc(O)ccc4[nH]3)c3c(N)ncnc32)CC1 [Compound 30]
pIC50 (mTOR; Table 2): > 7.60
pIC50 (PI3K α; read-out: PI3K α IC50): < 6.30
pIC50 (PI3K δ; read-out: PI3K δ IC50, Table 2): < 6.30
pIC50 (PI3K β; read-out: PI3K β IC50, Table 2): < 6.30

Structure (SMILES): Nc1ncnc2c1c(-c1cc3cc(O)ccc3[nH]1)nn2Cc1cccnc1 [Compound 38]
pIC50 (PI3K γ; read-out: PI3K γ IC50): < 6.30
pIC50 (mTOR; Table 2): > 6.30
pIC50 (PI3K α; read-out: PI3K α IC50, Table 2): < 6.30
pIC50 (PI3K δ; read-out: PI3K δ IC50, Table 2): < 6.30
